These results are taken from patent US20230165846A1, “HETEROCYCLIC GLP-1 AGONISTS” (Gasherbrum Bio, Inc., priority 2020, published 2023).

This experiment addresses GLP-1 Receptor (Homo sapiens, UniProt P43220). In words: GLP-1R agonist cAMP stimulation assay, Method 2 (HDB HEK293/GLP1R/CRE-LUC, Cisbio cAMP dynamic 2 kit). It counts as cell-based. The following applies: HEK293/GLP1R/CRE-LUC cells (HD Biosciences); 30 min at 37° C.; 0.5 mM IBMX, 0.1% BSA; geometric mean where n>=2; read-out: GLP1R cAMP Stimulation DR: EC50 (nM) Method 2 (HDB). As to the method:
Method 2: Activation of GLP-1 receptor is known to stimulate cyclic AMP (cAMP) production in cells which indicates primary coupling to the Gas subunit of the G protein heterotrimeric complex.
To optimize functional activity directed toward Gas coupling, a HEK293/CRE-Luc cell line developed by HDB stably expressing the GLP-1 Receptor was used. 200× concentration of compound working solutions were prepared (Agilent Technologies Bravo) with ½log serial dilution in 384-well Echo LDV plate (Labcyte, Cat# LP-0200). […] Seal the plate and incubate at 37° C. with 5% CO2 for 30 min.
After incubation the cAMP assay signal was generated using cAMP dynamic 2 Kit (Cisbio). 5 µL cAMP-d2 working solution was added to each well, followed with 5 µL Anti-cAMP antibody-cryptate working solution added to each well using ThermoFisher Multidrop Combi. Incubate at room temperature for 1 hour protected from light.
%Activity = 100% x (mean RLU of test sample - mean RLU of vehicle control) / (mean RLU of MAX control - mean RLU of vehicle control))
This is done to account for the lognormal distribution of multiple estimates of EC50 values. In practice geometric mean is calculated by first generating log values of EC50, averaging replicates and then calculating the antilog of the average.

Chain of GLP-1 Receptor (P43220 24-463): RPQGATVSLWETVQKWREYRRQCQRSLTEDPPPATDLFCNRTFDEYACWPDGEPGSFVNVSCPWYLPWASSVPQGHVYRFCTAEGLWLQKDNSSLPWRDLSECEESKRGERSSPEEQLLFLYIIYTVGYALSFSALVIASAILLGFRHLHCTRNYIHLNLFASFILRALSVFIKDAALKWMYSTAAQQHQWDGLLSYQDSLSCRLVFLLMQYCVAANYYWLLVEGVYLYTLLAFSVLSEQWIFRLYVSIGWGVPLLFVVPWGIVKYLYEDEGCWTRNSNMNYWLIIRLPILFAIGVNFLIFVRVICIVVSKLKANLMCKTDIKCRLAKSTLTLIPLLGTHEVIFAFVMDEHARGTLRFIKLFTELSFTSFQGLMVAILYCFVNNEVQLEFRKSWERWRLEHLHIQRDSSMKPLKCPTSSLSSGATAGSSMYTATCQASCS

Turning to `N#Cc1ccc(COc2cccc(C3=CCC(Cc4nc5ccc(C(=O)O)nc5n4C[C@@H]4CCO4)CC3)n2)c(F)c1` (single isomer, unassigned) [Compound 101b], the EC50 came to 0.0088 nM.
Next, `N#Cc1ccc(COc2cccc(C3=CCC(Cc4nc5ccc(C(=O)O)nc5n4C[C@@H]4CCO4)CC3)n2)c(F)c1` (single isomer, unassigned) [Compound 101c]: 0.083 nM; `O=C(O)c1ccc2nc(CC3CC=C(c4cccc(OCc5ccc(Cl)cc5F)n4)CC3)n(C[C@@H]3CCO3)c2n1` (single isomer, unassigned) [Compound 102b]: 0.007 nM.
With `O=C(O)c1ccc2nc(CC3CC=C(c4cccc(OCc5ccc(Cl)cc5F)n4)CC3)n(C[C@@H]3CCO3)c2n1` (single isomer, unassigned) [Compound 102c], the EC50 came out at 0.044 nM.
Turning to `O=C(O)c1ccc2nc(CC3CC=C(c4ncc(F)c(OCc5ccc(Cl)cc5F)n4)CC3)n(C[C@@H]3CCO3)c2n1` (single isomer, unassigned) [Compound 114b], the EC50 was 0.012 nM.
As for `O=C(O)c1ccc2nc(CC3CC=C(c4ncc(F)c(OCc5ccc(Cl)cc5F)n4)CC3)n(C[C@@H]3CCO3)c2n1` (single isomer, unassigned) [Compound 114c], the EC50 stood at 0.13 nM.
As to `O=C(O)c1ccc2nc(CC3CC=C(c4ccc(F)c(OCc5ccc(Cl)cc5F)n4)CC3)n(C[C@@H]3CCO3)c2n1` (stereo partly drawn) [Compound 113a, 2-((4-(6-((4-chloro-2-fluorobenzyl)oxy)-5-fluoropyridin-2-yl)cyclohex-3-en-1-yl)methyl)-3-(((S)-oxetan-2-yl)methyl)-3H-imidazo[4,5-b]pyridine-5-carboxylic acid], the EC50 was found to be 0.015 nM.
`O=C(O)c1ccc2nc(CC3CC=C(c4ncc(F)c(OCc5ccc(Cl)cc5F)n4)CC3)n(C[C@@H]3CCO3)c2n1` (stereo partly drawn) [Compound 114a, 2-((4-(4-((4-chloro-2-fluorobenzyl)oxy)-5-fluoropyrimidin-2-yl)cyclohex-3-en-1-yl)methyl)-3-(((S)-oxetan-2-yl)methyl)-3H-imidazo[4,5-b]pyridine-5-carboxylic acid]: the EC50 is 0.02 nM.
Take `N#Cc1ccc(COc2nc(C3=CCC(Cc4nc5ccc(C(=O)O)nc5n4C[C@@H]4CCO4)CC3)ccc2F)c(F)c1` (stereo partly drawn) [Compound 115a, 2-((4-(6-((4-cyano-2-fluorobenzyl)oxy)-5-fluoropyridin-2-yl)cyclohex-3-en-1-yl)methyl)-3-(((S)-oxetan-2-yl)methyl)-3H-imidazo[4,5-b]pyridine-5-carboxylic acid]: the EC50 was determined as 0.018 nM.
Take `O=C(O)c1cc2c(cn1)nc(CC1CC=C(c3cccc(OCc4ccc(Cl)cc4F)n3)CC1)n2C[C@@H]1CCO1` (stereo partly drawn) [Compound 116a, 2-((4-(6-((4-chloro-2-fluorobenzyl)oxy)pyridin-2-yl)cyclohex-3-en-1-yl)methyl)-1-(((S)-oxetan-2-yl)methyl)-1H-imidazo[4,5-c]pyridine-6-carboxylic acid]: the EC50 was 0.73 nM.
For `N#Cc1ccc(COc2cccc(C3=CCC(Cc4nc5cnc(C(=O)O)cc5n4C[C@@H]4CCO4)CC3)n2)c(F)c1` (stereo partly drawn) [Compound 117a, 2-((4-(6-((4-cyano-2-fluorobenzyl)oxy)pyridin-2-yl)cyclohex-3-en-1-yl)methyl)-1-(((S)-oxetan-2-yl)methyl)-1H-imidazo[4,5-c]pyridine-6-carboxylic acid], the EC50 amounted to 0.37 nM.
In the case of `O=C(O)c1cnc2nc(CC3CC=C(c4cccc(OCc5ccc(Cl)cc5F)n4)CC3)n(C[C@@H]3CCO3)c2c1` (stereo partly drawn) [Compound 118a, 2-((4-(6-((4-chloro-2-fluorobenzyl)oxy)pyridin-2-yl)cyclohex-3-en-1-yl)methyl)-1-(((S)-oxetan-2-yl)methyl)-1H-imidazo[4,5-b]pyridine-6-carboxylic acid], the EC50 turned out to be 0.02 nM.
Consider `O=C(O)c1cnc2nc(CC3CC=C(c4nccc(OCc5ccc(Cl)cc5F)n4)CC3)n(C[C@@H]3CCO3)c2c1` (stereo partly drawn) [Compound 119a, 2-((4-(4-((4-chloro-2-fluorobenzyl)oxy)pyrimidin-2-yl)cyclohex-3-en-1-yl)methyl)-1-(((S)-oxetan-2-yl)methyl)-1H-imidazo[4,5-b]pyridine-6-carboxylic acid], for which the EC50 was found to be 0.17 nM.
Take `O=C(O)c1ccc2nc(CC3CC=C(c4ncc(F)c(OCc5ccc(Cl)cn5)n4)CC3)n(C[C@@H]3CCO3)c2n1` (stereo partly drawn) [Compound 120a, 2-((4-(4-((5-chloropyridin-2-yl)methoxy)-5-fluoropyrimidin-2-yl)cyclohex-3-en-1-yl)methyl)-3-(((S)-oxetan-2-yl)methyl)-3H-imidazo[4,5-b]pyridine-5-carboxylic acid]: the EC50 amounted to 0.12 nM.
Regarding `O=C(O)c1ccc2nc(CC3CC=C(c4cccc(OCc5ccc(Cl)cn5)n4)CC3)n(C[C@@H]3CCO3)c2n1` (stereo partly drawn) [Compound 121a, 2-((4-(6-((5-chloropyridin-2-yl)methoxy)pyridin-2-yl)cyclohex-3-en-1-yl)methyl)-3-(((S)-oxetan-2-yl)methyl)-3H-imidazo[4,5-b]pyridine-5-carboxylic acid], the EC50 was determined as 0.027 nM.
Then `N#Cc1ccc(COc2nc(C3=CCC(Cc4nc5ccc(C(=O)O)nc5n4CC4CC4)CC3)ncc2F)c(F)c1` (stereo not shown) [Compound 122, 2-((4-(4-((4-cyano-2-fluorobenzyl)oxy)-5-fluoropyrimidin-2-yl)cyclohex-3-en-1-yl)methyl)-3-(cyclopropylmethyl)-3H-imidazo[4,5-b]pyridine-5-carboxylic acid], with 0.43 nM; and `N#Cc1ccc(COc2nc(C3=CCC(Cc4nc5ccc(C(=O)O)nc5n4CC4(C#N)CC4)CC3)ncc2F)c(F)c1` (stereo not shown) [Compound 123, 2-((4-(4-((4-cyano-2-fluorobenzyl)oxy)-5-fluoropyrimidin-2-yl)cyclohex-3-en-1-yl)methyl)-3-((1-cyanocyclopropyl)methyl)-3H-imidazo[4,5-b]pyridine-5-carboxylic acid], with 0.067 nM.
Regarding `CC(C)(C#N)Cn1c(CC2CC=C(c3ncc(F)c(OCc4ccc(C#N)cc4F)n3)CC2)nc2ccc(C(=O)O)nc21` (stereo not shown) [Compound 124, 2-((4-(4-((4-cyano-2-fluorobenzyl)oxy)-5-fluoropyrimidin-2-yl)cyclohex-3-en-1-yl)methyl)-3-(2-cyano-2-methylpropyl)-3H-imidazo[4,5-b]pyridine-5-carboxylic acid], the EC50 was 0.39 nM.
Then `N#CC1(Cn2c(CC3CC=C(c4ncc(F)c(OCc5ccc(Cl)cc5F)n4)CC3)nc3ccc(C(=O)O)nc32)CC1` (stereo not shown) [Compound 125, 2-((4-(4-((4-chloro-2-fluorobenzyl)oxy)-5-fluoropyrimidin-2-yl)cyclohex-3-en-1-yl)methyl)-3-((1-cyanocyclopropyl)methyl)-3H-imidazo[4,5-b]pyridine-5-carboxylic acid], with 0.045 nM; and `CC(C)(C#N)Cn1c(CC2CC=C(c3ncc(F)c(OCc4ccc(Cl)cc4F)n3)CC2)nc2ccc(C(=O)O)nc21` (stereo not shown) [Compound 126, 2-((4-(4-((4-chloro-2-fluorobenzyl)oxy)-5-fluoropyrimidin-2-yl)cyclohex-3-en-1-yl)methyl)-3-(2-cyano-2-methylpropyl)-3H-imidazo[4,5-b]pyridine-5-carboxylic acid], with 0.37 nM; and `COCCn1c(CC2CC=C(c3ncc(F)c(OCc4ccc(Cl)cc4F)n3)CC2)nc2ccc(C(=O)O)nc21` (stereo not shown) [Compound 127], with 0.83 nM.
As to `CC#CCn1c(CC2CC=C(c3cccc(OCc4ccc(Cl)cc4F)n3)CC2)nc2ccc(C(=O)O)nc21` (stereo not shown) [Compound 128, 3-(but-2-yn-1-yl)-2-((4-(6-((4-chloro-2-fluorobenzyl)oxy)pyridin-2-yl)cyclohex-3-en-1-yl)methyl)-3H-imidazo[4,5-b]pyridine-5-carboxylic acid], the EC50 is 59 nM.
